Counter-ions that a name gives are not always drawn. Like-named read-outs stand apart in the source and are kept apart here.
Experiments:
Format in all cases: biochemical
[1] = target: T1, human JAK1 (a.a. 837-1142) (Homo sapiens, UniProt P23458); assay: In vitro JAK kinase assay (HTRF, phosphorylation of a biotinylated peptide), JAK1; conditions: read-out: JAK1 IC50
T1 construct: human JAK1 (a.a. 837-1142); His tag (N); made in house; host or cells: insect cells (baculovirus)
How it was run: (§1)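 Kinase reactions ran at room temperature for 1 h with ATP matched per isoform (JAK1 90 μM, JAK2 30 μM, JAK3 3 μM). After an EDTA stop, the phosphorylated biotin-peptide was read by HTRF using Eu-Py20 and SA-APC after 40 min binding.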

[2] = target: T2, human JAK2 (a.a. 828-1132) (Homo sapiens, UniProt O60674); assay: In vitro JAK kinase assay (HTRF, phosphorylation of a biotinylated peptide), JAK2
T2 construct: JAK2 (a.a. 828-1132); His tag (N); made in house; host or cells: insect cells (baculovirus)
T2 sequence (O60674 828-1132): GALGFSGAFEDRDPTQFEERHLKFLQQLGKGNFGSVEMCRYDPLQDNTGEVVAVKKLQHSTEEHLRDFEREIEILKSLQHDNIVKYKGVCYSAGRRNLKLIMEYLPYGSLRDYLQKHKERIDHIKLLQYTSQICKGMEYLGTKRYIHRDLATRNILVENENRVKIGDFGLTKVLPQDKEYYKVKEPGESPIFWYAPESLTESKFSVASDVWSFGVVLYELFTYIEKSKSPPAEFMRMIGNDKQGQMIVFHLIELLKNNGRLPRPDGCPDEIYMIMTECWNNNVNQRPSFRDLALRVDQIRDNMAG
How it was run: as §1

[3] = target: T3, human JAK3 (a.a. 781-1124) (Homo sapiens, UniProt P52333); assay: In vitro JAK kinase assay (HTRF, phosphorylation of a biotinylated peptide), JAK3
T3 construct: JAK3 (a.a. 781-1124); His tag (N); made in house; host or cells: insect cells (baculovirus)
T3 sequence (P52333 781-1124): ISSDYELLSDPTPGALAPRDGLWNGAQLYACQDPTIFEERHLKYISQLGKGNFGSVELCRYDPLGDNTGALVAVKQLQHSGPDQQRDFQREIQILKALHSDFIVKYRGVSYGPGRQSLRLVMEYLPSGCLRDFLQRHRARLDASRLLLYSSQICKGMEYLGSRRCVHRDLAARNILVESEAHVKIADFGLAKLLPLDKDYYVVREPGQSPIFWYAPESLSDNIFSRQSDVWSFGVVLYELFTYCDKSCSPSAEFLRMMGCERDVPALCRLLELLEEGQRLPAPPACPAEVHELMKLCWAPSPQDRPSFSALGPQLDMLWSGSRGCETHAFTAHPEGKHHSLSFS
How it was run: as §1

TYK2 = TYK2 (Homo sapiens, UniProt P29597); assay: TYK2 kinase inhibition (Table A1)
Chain of TYK2 (P29597 whole entry): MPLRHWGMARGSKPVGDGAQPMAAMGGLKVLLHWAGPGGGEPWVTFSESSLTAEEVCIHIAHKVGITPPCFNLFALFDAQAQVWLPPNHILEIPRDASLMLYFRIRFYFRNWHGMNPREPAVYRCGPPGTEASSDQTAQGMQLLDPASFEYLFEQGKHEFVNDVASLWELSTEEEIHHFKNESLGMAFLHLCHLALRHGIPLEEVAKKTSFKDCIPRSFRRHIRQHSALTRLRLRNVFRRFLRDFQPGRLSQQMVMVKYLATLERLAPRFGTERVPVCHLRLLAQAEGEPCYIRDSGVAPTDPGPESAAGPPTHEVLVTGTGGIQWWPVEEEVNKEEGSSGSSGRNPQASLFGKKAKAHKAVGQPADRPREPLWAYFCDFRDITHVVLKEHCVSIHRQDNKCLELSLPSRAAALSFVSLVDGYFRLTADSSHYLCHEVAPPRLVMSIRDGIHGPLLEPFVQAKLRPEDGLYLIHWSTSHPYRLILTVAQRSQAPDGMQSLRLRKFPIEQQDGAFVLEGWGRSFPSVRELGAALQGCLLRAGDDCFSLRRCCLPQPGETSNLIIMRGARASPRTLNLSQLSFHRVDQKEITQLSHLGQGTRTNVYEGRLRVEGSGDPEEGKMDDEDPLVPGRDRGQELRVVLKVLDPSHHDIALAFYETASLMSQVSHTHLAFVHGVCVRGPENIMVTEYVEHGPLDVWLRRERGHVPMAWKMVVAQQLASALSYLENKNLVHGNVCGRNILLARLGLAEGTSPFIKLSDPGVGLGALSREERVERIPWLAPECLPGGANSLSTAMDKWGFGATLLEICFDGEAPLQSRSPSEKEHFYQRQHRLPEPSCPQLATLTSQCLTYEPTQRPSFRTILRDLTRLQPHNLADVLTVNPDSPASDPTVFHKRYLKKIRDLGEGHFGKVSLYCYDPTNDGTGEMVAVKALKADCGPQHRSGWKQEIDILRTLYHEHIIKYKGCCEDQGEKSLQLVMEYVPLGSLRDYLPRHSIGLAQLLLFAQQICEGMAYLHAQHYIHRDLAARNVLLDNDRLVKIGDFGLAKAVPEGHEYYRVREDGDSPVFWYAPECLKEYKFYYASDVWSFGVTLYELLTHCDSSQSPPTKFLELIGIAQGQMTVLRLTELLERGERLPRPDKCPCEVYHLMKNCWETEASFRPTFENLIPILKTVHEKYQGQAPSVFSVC

T1 sequence (P23458 849-1154): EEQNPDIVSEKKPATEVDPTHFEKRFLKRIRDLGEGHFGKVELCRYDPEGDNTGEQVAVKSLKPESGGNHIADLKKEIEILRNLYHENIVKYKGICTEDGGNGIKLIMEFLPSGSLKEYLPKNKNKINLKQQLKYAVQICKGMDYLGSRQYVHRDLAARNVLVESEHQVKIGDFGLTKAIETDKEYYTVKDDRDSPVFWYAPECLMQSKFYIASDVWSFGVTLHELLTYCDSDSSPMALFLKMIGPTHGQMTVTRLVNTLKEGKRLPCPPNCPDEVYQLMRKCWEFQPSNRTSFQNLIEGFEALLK

IC50 ([1]; Table D1) [µM]	IC50 ([2]; Table D1) [µM]	IC50 ([3]; Table D1) [µM]	IC50 (TYK2; Table D1) [µM]	Structure (SMILES)	other results
0.015	0.036	> 0.4	0.049	NS(=O)(=O)N1CCN(C(=O)COc2ccc3cc2CCc2cncc(c2)Nc2ncc(Cl)c(n2)N3)CC1 [Example D268, 4-({[6-Chloro-2,4,8,18,22-pentaazatetracyclo[14.3.1.1(3,7).1(9,13)]docosa-1(20),3(22),4,6,9(21),10,12,16,18-nonaen-12-yl]oxy}acetyl)piperazine-1-sulfonamide bis(trifluoroacetate)]	
0.032	0.172	> 1	0.26	O=C(CC1CN(C(=O)c2ccno2)C1)Nc1ccc2cc1CCc1cncc(c1)Nc1ncc(Cl)c(n1)N2 [Example D144, N-[6-Chloro-2,4,8,18,22-pentaazatetracyclo[14.3.1.1(3,7).1(9,13)]docosa-1(20),3(22),4,6,9(21),10,12,16,18-nonaen-12-yl]-2-[1-(isoxazol-5-ylcarbonyl)azetidin-3-yl]acetamide bis(trifluoroacetate)]	
0.037	0.144	> 1	0.193	Cn1cc(C(=O)N2CC(CC(=O)Nc3ccc4cc3CCc3cncc(c3)Nc3ncc(Cl)c(n3)N4)C2)cn1 [Example D142, N-[6-Chloro-2,4,8,18,22-pentaazatetracyclo[14.3.1.1(3,7).1(9,13)]docosa-1(20),3(22),4,6,9(21),10,12,16,18-nonaen-12-yl]-2-{1-[(1-methyl-1H-pyrazol-4-yl)carbonyl]azetidin-3-yl}acetamide bis(trifluoroacetate)]	
0.0092	0.014	0.147	0.013	O=C(C[C@@H]1CCCN(C(=O)c2ccccc2)C1)Nc1ccc2cc1CCc1cncc(c1)Nc1ncc(Cl)c(n1)N2 [Example D206, 2-[(3S)-1-Benzoylpiperidin-3-yl]-N-[6-chloro-2,4,8,18,22-pentaazatetracyclo[14.3.1.1(3,7).1(9,13)]docosa-1(20),3(22),4,6,9(21),10,12,16,18-nonaen-12-yl]acetamide bis(trifluoroacetate)]	
0.033	0.136	> 1	0.435	O=C(CC1CN(C(=O)c2ccn[nH]2)C1)Nc1ccc2cc1CCc1cncc(c1)Nc1ncc(Cl)c(n1)N2 [Example D150, N-[6-Chloro-2,4,8,18,22-pentaazatetracyclo[14.3.1.1(3,7).1(9,13)]docosa-1(20),3(22),4,6,9(21),10,12,16,18-nonaen-12-yl]-2-[1-(1H-pyrazol-5-ylcarbonyl)azetidin-3-yl]acetamide bis(trifluoroacetate)]	

Continued, compound first:

Structure (SMILES)	IC50 ([1]; Table D1) [µM]	IC50 ([2]; Table D1) [µM]	IC50 ([3]; Table D1) [µM]	IC50 (TYK2; Table D1) [µM]	other results
O=C(Cc1noc2ccccc12)Nc1ccc2cc1CCc1cccc(c1)Nc1ncc(Cl)c(n1)N2 [Example C45, 2-(1,2-Benzisoxazol-3-yl)-N-[6-chloro-2,4,8,22-tetraazatetracyclo[14.3.1.1(3,7).1(9,13)]docosa-1(20),3(22),4,6,9(21),10,12,16,18-nonaen-12-yl]acetamide trifluoroacetate]					IC50 [1]: 0.165 µM; IC50 [2]: 0.321 µM; IC50 [3]: > 10 µM; IC50 (TYK2): 0.544 µM
O=C(C[C@H]1CCCNC1)Nc1ccc2cc1CCc1cccc(c1)Nc1ncc(Cl)c(n1)N2 [Example D193, N-[6-Chloro-2,4,8,22-tetraazatetracyclo[14.3.1.1(3,7).1(9,13)]docosa-1(20),3(22),4,6,9(21),10,12,16,18-nonaen-12-yl]-2-[(3R)-piperidin-3-yl]acetamidebis(trifluoroacetate)]	0.0014	0.0083	0.032	0.0061	
O=C(CC1CCN(c2nncs2)C1)Nc1ccc2cc1CCc1cncc(c1)Nc1ncc(Cl)c(n1)N2 (stereo not drawn) [Example D155, N-[6-Chloro-2,4,8,18,22-pentaazatetracyclo[14.3.1.1(3,7).1(9,13)]docosa-1(20),3(22),4,6,9(21),10,12,16,18-nonaen-12-yl]-2-[1-(1,3,4-thiadiazol-2-yl)pyrrolidin-3-yl]acetamide tris(trifluoroacetate)]	0.029	0.12	> 0.4	> 0.4	
N#Cc1ccccc1N1CCN(C(=O)COc2ccc3cc2CCc2cncc(c2)Nc2ncc(Cl)c(n2)N3)CC1 [Example D235, 2-[4-({[6-Chloro-2,4,8,18,22-pentaazatetracyclo[14.3.1.1(3,7).1(9,13)]docosa-1(20),3(22),4,6,9(21),10,12,16,18-nonaen-12-yl]oxy}acetyl)piperazin-1-yl]benzonitrile tris(trifluoroacetate)]	0.064	> 0.4	> 0.4	> 0.4	
O=C(NCc1ccco1)Nc1ccc2cc1CCc1cncc(c1)Nc1ncc(Cl)c(n1)N2 [Example B134, N-[6-Chloro-2,4,8,18,22-pentaazatetracyclo[14.3.1.1(3,7).1(9,13)]docosa-1(20),3(22),4,6,9(21),10,12,16,18-nonaen-12-yl]-N′-(2-furylmethyl)urea bis(trifluoroacetate)]					IC50 ([1]; Table B1): 0.00075 µM; IC50 ([2]; Table B1): 0.0017 µM; IC50 ([3]; Table B1): 0.023 µM; IC50 (TYK2; Table B1): 0.0028 µM
Clc1cnc2nc1Nc1cccc(c1)OCCc1cc(CN3CCNCC3)cc(c1)N2 [Example D191, 6-Chloro-19-(piperazin-1-ylmethyl)-14-oxa-2,4,8,23-tetraazatetracyclo[15.3.1.1(3,7).1(9,13)]tricosa-1(21),3(23),4,6,9(22),10,12,17,19-nonaene tris(trifluoroacetate)]	0.034	0.0014	0.0057	0.0089	
Cc1cc(C(=O)N2CCC[C@@H](CC(=O)Nc3ccc4cc3CCc3cncc(c3)Nc3ncc(Cl)c(n3)N4)C2)no1 [Example D208, N-[6-Chloro-2,4,8,18,22-pentaazatetracyclo[14.3.1.1(3,7).1(9,13)]docosa-1(20),3(22),4,6,9(21),10,12,16,18-nonaen-12-yl]-2-{(3S)-1-[(5-methylisoxazol-3-yl)carbonyl]piperidin-3-yl}acetamide bis(trifluoroacetate)]	0.018	0.015	0.064	0.082	
CC(=O)N1CCN(C(=O)COc2ccc3cc2CCc2cncc(c2)Nc2ncc(Cl)c(n2)N3)CC1 [Example D252, 12-[2-(4-Acetylpiperazin-1-yl)-2-oxoethoxy]-6-chloro-2,4,8,18,22-pentaazatetracyclo[14.3.1.1(3,7).1(9,13)]docosa-1(20),3(22),4,6,9(21),10,12,16,18-nonaene bis(trifluoroacetate)]	0.065	0.244	> 0.4	> 0.4	
O=C(Cc1csc2ccccc12)Nc1ccc2cc1CCc1cccc(c1)Nc1ncc(Cl)c(n1)N2 [Example C35, 2-(1-Benzothien-3-yl)-N-[6-chloro-2,4,8,22-tetraazatetracyclo[14.3.1.1(3,7).1(9,13)]docosa-1(20),3(22),4,6,9(21),10,12,16,18-nonaen-12-yl]acetamide trifluoroacetate]					IC50 [1]: 0.232 µM; IC50 [2]: 0.203 µM; IC50 [3]: > 10 µM; IC50 (TYK2): 0.549 µM
O=C(CC1CCN(c2nc3cccnc3o2)CC1)Nc1ccc2cc1CCc1cccc(c1)Nc1ncc(Cl)c(n1)N2 [Example A126, N-[6-Chloro-2,4,8,22-tetraazatetracyclo[14.3.1.1(3,7).1(9,13)]docosa-1(20),3(22),4,6,9(21),10,12,16,18-nonaen-12-yl]-2-(1-[1,3]oxazolo[5,4-b]pyridin-2-ylpiperidin-4-yl)acetamide bis(trifluoroacetate)]					IC50 ([1]; method AA1 (90 μM ATP) or AA2 (1000 μM ATP), not stated per value): 0.0005 µM; IC50 ([2]; method AA1 (30 μM ATP) or AA2 (1000 μM ATP), not stated per value): 0.0026 µM; IC50 ([3]; method AA1 (3 μM ATP) or AA2 (1000 μM ATP), not stated per value): 0.034 µM; IC50 (TYK2): 0.0075 µM
O=C(c1ccccc1)N1CCN(c2ccc3cc2CCc2cccc(c2)Nc2ncc(Cl)c(n2)N3)CC1 [Example D94, 12-(4-Benzoylpiperazin-1-yl)-6-chloro-2,4,8,22-tetraazatetracyclo[14.3.1.1(3,7).1(9,13)]docosa-1(20),3(22),4,6,9(21),10,12,16,18-nonaene bis(trifluoroacetate)]	0.079	0.043	0.138	0.16	
O=C(Cc1c[nH]cn1)Nc1ccc2cc1CCc1cccc(c1)Nc1ncc(Cl)c(n1)N2 [Example C33, N-[6-Chloro-2,4,8,22-tetraazatetracyclo[14.3.1.1(3,7).1(9,13)]docosa-1(20),3(22),4,6,9(21),10,12,16,18-nonaen-12-yl]-2-(1H-imidazol-4-yl)acetamide bis(trifluoroacetate)]					IC50 [1]: 0.017 µM; IC50 [2]: 0.035 µM; IC50 [3]: 0.733 µM; IC50 (TYK2): 0.217 µM
N#Cc1ccccc1NC(=O)N1CCC(CCOc2ccc3cc2CCc2cncc(c2)Nc2ncc(Cl)c(n2)N3)CC1 [Example D173, 4-(2-{[6-Chloro-2,4,8,18,22-pentaazatetracyclo[14.3.1.1(3,7).1(9,13)]docosa-1(20),3(22),4,6,9(21),10,12,16,18-nonaen-12-yl]oxy}ethyl)-N-(2-cyanophenyl)piperidine-1-carboxamide bis(trifluoroacetate)]	0.1	> 0.4	> 0.4	> 0.4	

— patent US8871753B2, “Macrocyclic compounds and their use as kinase inhibitors” (Incyte Corporation, priority 2008, dated 2014)
